Data on seven compounds can be found in ChEMBL document CHEMBL1135523, “(4R,5S)/(4S,5R)-4,5-Bis(4-hydroxyphenyl)-2-imidazolines: ligands for the estrogen receptor with a novel binding mode” (J Med Chem, 2002).

Assay [1] deals with Estrogen receptor (Bos taurus) (UniProt Q9XSB5+P49884). As to the kind of experiment: Displacement of 17-beta-[3H]-estradiol from Estrogen receptor of calf uterine cytosol at 20 uM. It counts as protein assay.
In assay [2] the target is T1, Estrogen receptor (Homo sapiens, UniProt P03372).
T1 sequence (P03372 whole entry): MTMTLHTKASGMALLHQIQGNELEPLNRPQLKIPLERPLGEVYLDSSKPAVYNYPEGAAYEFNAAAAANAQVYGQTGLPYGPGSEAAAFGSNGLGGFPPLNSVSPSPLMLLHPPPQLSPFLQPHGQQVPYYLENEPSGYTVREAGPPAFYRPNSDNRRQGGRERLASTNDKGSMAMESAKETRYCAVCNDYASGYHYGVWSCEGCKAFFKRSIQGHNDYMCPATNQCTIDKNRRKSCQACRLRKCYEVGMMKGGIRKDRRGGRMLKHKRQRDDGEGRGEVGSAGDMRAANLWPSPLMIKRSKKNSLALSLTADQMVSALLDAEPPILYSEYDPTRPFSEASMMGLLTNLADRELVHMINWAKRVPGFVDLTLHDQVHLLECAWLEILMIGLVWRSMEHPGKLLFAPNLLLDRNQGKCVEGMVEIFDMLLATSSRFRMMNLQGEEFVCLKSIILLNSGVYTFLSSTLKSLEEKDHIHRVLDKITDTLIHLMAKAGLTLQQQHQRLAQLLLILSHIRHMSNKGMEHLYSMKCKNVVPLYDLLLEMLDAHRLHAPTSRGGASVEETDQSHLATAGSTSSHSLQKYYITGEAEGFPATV
As to the kind of experiment: Agonist activity in transcriptional activation assay in MCF-7-2a cells compared to estradiol E2. It counts as functional, cell-based.

Each structure is given as a SMILES string.

Consider `Oc1ccc([C@H]2N=CN[C@H]2c2ccc(O)cc2)cc1`, for which, in assay [1], the Control worked out at 1.7%.

Consider `Cc1cc(O)ccc1[C@H]1N=CN[C@H]1c1ccc(O)cc1C`, for which the Control in assay [1] is 0%.

As for `Oc1ccc([C@H]2NC=N[C@H]2c2ccc(O)cc2Cl)c(Cl)c1`, a half-maximal response in assay [2] (EC50) required 380 nM. The compound further came in with a Control in assay [1] of 44%.

As for `Oc1ccc([C@@H]2N=CN[C@@H]2c2c(Cl)cc(O)cc2Cl)c(Cl)c1`, the EC50 (usually the midpoint of the concentration-response curve) in assay [2] came out at 65 nM. In assay [1], the Control worked out at 70.3%.

In assay [2], `Oc1ccc([C@H]2N=CN[C@H]2c2ccc(O)cc2I)c(I)c1` registered an EC50 of 1800 nM. Moreover, the Control in assay [1] is 42.9%.

In turn, `Oc1ccc([C@H]2N=CN[C@H]2c2ccc(O)cc2F)c(F)c1` gave a Control in assay [1] of 20.9%.

In assay [2], `Oc1ccc([C@@H]2N=CN[C@@H]2c2c(Cl)cc(O)cc2Cl)c(F)c1` registered an EC50 of 620 nM. The compound also gave a Control in assay [1] of 40.1%.
